Experimental data from ChEMBL document CHEMBL4680162, “Synthesis and pharmacological evaluation of chlorin derivatives for photodynamic therapy of cholangiocarcinoma” (Eur J Med Chem, 2020).
Activity calls are given as the source filed them. The rule behind the calls is not given here.

Experiments:
[1] = Induction of singlet oxygen generation in DMSO assessed as bleaching rate at 10 uM under 650 nanometer light irradiation; assay type: functional
[2] = Absorption property of compound in poly-oxyethylene castor oil and PBS assessed as Q band maximum absorption wavelength by UV-visible spectrophotometric method; assay type: physicochemical; settings: buffer
[3] = Induction of apoptosis in human QBC939 cells assessed as early apoptotic cells at 2 uM in presence of 2J/cm2 light irradiation measured after 2 hrs by annexin V-FITC and propidium iodide staining based flow cytometric analysis (reference value: 0.01 %); assay type: functional
[4] = Induction of apoptosis in human QBC939 cells assessed as necrotic cells at 2 uM by annexin V-FITC and propidium iodide staining based flow cytometric analysis; assay type: functional
[5] = Phototoxicity in BALB/c nude mouse xenografted with QBC939 cells assessed as change in kidney at 1 mg/kg, iv followed by laser light irradiation at 120 J/cm2 measured after 1 day of light irradiation by H and E staining based histological analysis; assay type: organism-based; settings: in vivo, 24 h
QBC939 [6] = assay: Photodynamic antitumor activity against human QBC939 cells xenografted in BALB/c nude mouse assessed as increase in tumor tissue damage at 1 mg/kg, iv followed by laser light irradiation at 120 J/cm2 measured after 1 day of light irradiation by H and E staining based histological analysis; assay type: functional, organism-based
[7] = Induction of singlet oxygen generation in DMF solution irradiated with 650 nanometer laser light in every 1 min by ESR assay; assay type: functional
[8] = Induction of apoptosis in human QBC939 cells assessed as early apoptotic cells at 2 uM by annexin V-FITC and propidium iodide staining based flow cytometric analysis (reference value: 0.01 %); assay type: functional
[9] = Phototoxicity in BALB/c nude mouse xenografted with QBC939 cells assessed as change in lung at 1 mg/kg, iv followed by laser light irradiation at 120 J/cm2 measured after 1 day of light irradiation by H and E staining based histological analysis; assay type: organism-based; settings: in vivo, 24 h
[10] = Phototoxicity in ICR mouse assessed as ear weight at 1 mg/kg, iv followed by 10 mW/cm2 light irradiation for 10 mins at 1 day after drug challenge and measured after 1 day of light irradiation by H and E staining based microscopic analysis (reference value: 12.4 +/- 1.5 mg); assay type: organism-based; settings: in vivo, 48 h, time 2 day
[11] = Induction of apoptosis in human QBC939 cells assessed as late apoptotic cells at 2 uM in presence of 2J/cm2 light irradiation measured after 2 hrs by annexin V-FITC and propidium iodide staining based flow cytometric analysis (reference value: 0.01 %); assay type: functional
[12] = Induction of apoptosis in human QBC939 cells assessed as viable cells at 2 uM in presence of 2J/cm2 light irradiation measured after 24 hrs by annexin V-FITC and propidium iodide staining based flow cytometric analysis (reference value: 99.6 %); assay type: functional; settings: QBC939, light or radiation study, read-out: Activity
[13] = Emission property of compound in poly-oxyethylene castor oil and PBS assessed as Q band emission wavelength by […]; assay type: physicochemical; settings: buffer
[14] = Photodynamic antitumor activity against human QBC939 cells xenografted in BALB/c nude mouse assessed as tumor weight at 1 mg/kg, iv followed by laser light irradiation at 120 J/cm2 measured after 13 days; assay type: functional; settings: time 13 day
[15] = Induction of apoptosis in human QBC939 cells assessed as viable cells at 2 uM by annexin V-FITC and propidium iodide staining based flow cytometric analysis (reference value: 99.99 %); assay type: functional; settings: read-out: Activity
[16] = Phototoxicity in ICR mouse assessed as back skin weight at 1 mg/kg, iv followed by 10 mW/cm2 light irradiation for 10 mins at 1 day after drug challenge and measured after 1 day of light irradiation by H and E staining based microscopic analysis (reference value: 34.3 +/- 2.1 mg); assay type: organism-based; settings: in vivo, 48 h, time 2 day
[17] = Phototoxicity in ICR mouse assessed as neck skin weight at 1 mg/kg, iv followed by 10 mW/cm2 light irradiation for 10 mins at 1 day after drug challenge and measured after 1 day of light irradiation by H and E staining based microscopic analysis (reference value: 36.5 +/- 2.4 mg); assay type: organism-based; settings: in vivo, 48 h, time 2 day
[18] = Phototoxicity in ICR mouse assessed as pathological changes 1 mg/kg, iv in presence of 10 mW/cm2 light irradiation for 10 mins at 1 day after drug challenge and measured after 1 day of light irradiation by H and E staining based microscopic analysis; assay type: organism-based; settings: in vivo, 48 h, time 2 day
[19] = Absorption property of the compound in DMSO assessed as Q band log absorption coefficient by UV-visible spectrophotometric method; assay type: physicochemical
QBC939 [20] = assay: Photodynamic antitumor activity against human QBC939 cells xenografted in BALB/c nude mouse assessed as morphological change in tumor tissue at 1 mg/kg, iv followed by laser light irradiation at 120 J/cm2 measured after 1 day of light irradiation by H and E staining based histological analysis; assay type: functional, organism-based
[21] = Absorption property of the compound in DMF assessed as Q band log absorption coefficient by UV-visible spectrophotometric method; assay type: physicochemical
[22] = Induction of apoptosis in human QBC939 cells assessed as early apoptotic cells at 2 uM in presence of 2J/cm2 light irradiation measured after 24 hrs by annexin V-FITC and propidium iodide staining based flow cytometric analysis (reference value: 0.01 %); assay type: functional
[23] = Drug uptake in human QBC939 cells at 4 uM by fluorescence spectrophotometer analysis; assay type: ADME, cell-based; settings: qbc939, 4 µM
QBC939 [24] = assay: Photodynamic antitumor activity against human QBC939 cells xenografted in BALB/c nude mouse assessed as decrease in tumor weight at 1 mg/kg, iv under dark condition measured after 13 days; assay type: functional, organism-based; settings: time 13.0 day
[25] = Phototoxicity against human QBC939 cells assessed as reduction in cell viability irradiated with 1 J/cm2 of 650 nanometer laser light preincubated for 24 hrs in dark and measured after 24 hrs by MTT assay; assay type: functional, cell-based; settings: QBC939, light or radiation study
[26] = Phototoxicity against human QBC939 cells assessed as reduction in cell viability irradiated with 4 J/cm2 of 650 nanometer laser light preincubated for 24 hrs in dark and measured after 24 hrs by MTT assay; assay type: functional, cell-based; settings: QBC939, light or radiation study
[27] = Induction of apoptosis in human QBC939 cells assessed as late apoptotic cells at 2 uM in presence of 2J/cm2 light irradiation measured after 24 hrs by annexin V-FITC and propidium iodide staining based flow cytometric analysis (reference value: 0.01 %); assay type: functional
[28] = Phototoxicity in BALB/c nude mouse xenografted with QBC939 cells assessed as change in spleen at 1 mg/kg, iv followed by laser light irradiation at 120 J/cm2 measured after 1 day of light irradiation by H and E staining based histological analysis; assay type: organism-based; settings: in vivo, 24 h
[29] = Phototoxicity in BALB/c nude mouse xenografted with QBC939 cells assessed as change in heart at 1 mg/kg, iv followed by laser light irradiation at 120 J/cm2 measured after 1 day of light irradiation by H and E staining based histological analysis; assay type: organism-based; settings: in vivo, 24 h
[30] = Drug uptake in nude mouse xenografted with QBC939 cells assessed as drug level in tumor tissue at 1 mg/kg, iv measured after 8 hrs by fluorescence imaging assay; assay type: ADME, organism-based, Neoplasm; settings: in vivo
[31] = Absorption property of compound in poly-oxyethylene castor oil and PBS assessed as Q band log absorption coefficient by UV-visible spectrophotometric method; assay type: physicochemical; settings: buffer

- Activity [2]: 655 nm
- Activity [13]: 654 nm
- Activity [19]: 4.02
- Activity [21]: 3.02
- Drug uptake [23]: Active
- Drug uptake [30]: Active
- Activity [31]: 4.2
Structure (SMILES): COC(=O)C1(C(=O)O)C2c3nc(c(-c4ccccc4)c4ccc([nH]4)c(-c4ccccc4)c4nc(c(-c5ccccc5)c5ccc([nH]5)c3-c3ccccc3)C=C4)C21 (stereo unspecified)
- Activity [1]: Active
- Activity [3]: 23.2%
- Activity [4]: 3.6%
- Activity [5]: Non-Toxic
- Activity (QBC939 [6]): Active
- Activity [7]: Active
- Activity [8]: 0.04%
- Activity [9]: Non-Toxic
- Activity [10]: 12.8 mg
- Activity [11]: 14.73%
- viability at 2 µM [12]: 2.1%
- Activity [14]: 10%
- viability at 2 µM [15]: 94.3%
- Activity [16]: 35.1 mg
- Activity [17]: 37.9 mg
- Activity [18]: Non-Toxic
- Activity (QBC939 [20]): Active
- Activity [22]: 20.99%
- Activity (QBC939 [24]): inactive
- IC50 [25]: 1910 nM
- IC50 [26]: 780 nM
- Activity [27]: 69.12%
- Activity [28]: Non-Toxic
- Activity [29]: Non-Toxic
